# Tests used:
# [1] = test system: LDL; test: Inhibitory Action against Oxidative Modification of LDL (Cu2+-induced, TBA reactive substances); type: biochemical, New Zealand White rabbits; conditions: rabbit LDL 0.2 mg protein/ml, cupric sulfate 0.5 μM Cu2+, 37° C., 24 hours, read-out: LDL-Oxidation Inhibiting IC50
# Description: Inhibitory Action against Oxidative Modification of LDL
# Experiments were conducted as follows according to the method of Kita, et al. described in proceedings of the National Academy of Sciences, USA, volume 84, pages 5928 (1987).
# First, LDL was separated from the blood of New Zealand White rabbits fed with a feed containing 0.5% of cholesterol for three weeks and dissolved in phosphate-buffered physiological saline (final LDL concentration: 0.2 mg protein/ml). To this was added an ethanolic solution of each test compound, then cupric sulfate was added thereto (final Cu^2+ concentration: 0.5 μM) and the mixture was incubated at 37° C. for 24 hours.
# The amount of lipid peroxides in each of the incubated solutions was measured as thiobarbituric acid reacting substances (TBA reactive substances) and, from the regression line of the inhibitory rate for oxidative modification of LDL and the concentration of the compound, the 50% inhibiting concentration (IC50) was calculated. Quantitative determination of the TBA reactive substances was conducted by measuring the TBA reactive substances in the supernatant (prepared by removing protein from the incubated solution) by means of TBA method.
# [2] = Cholesterol-lowering Action in cholesterol-fed mice; type: in vivo; conditions: male ICR mice, feed with 1% cholesterol and 0.5% sodium cholate, 0.12% test compound in feed, seven days; for (VLDL + LDL) Cholesterol Lowering Rate: total minus HDL cholesterol; for Total Cholesterol Lowering Rate: serum
# Description: Cholesterol-lowering Action
# Male ICR mice (body weight: 30-40 grams) were freely fed for seven days with a feed containing 1% of cholesterol and 0.5% of sodium cholate to which 0.12% of the test compound was added (no such a compound was added for the control group), then blood was collected from the mice and the total cholesterol in serum was measured by the method of Allain described in Clinical Chemistry, volume 20, page 470 (1974).
# Total amount of VLDL cholesterol and LDL cholesterol was calculated by subtracting the amount of HDL cholesterol from the amount of total cholesterol. The amount of the HDL cholesterol was measured by the method of Ash and Hentschel described in Clinical Chemistry, volume 24, page 2180 (1978).
# Cholesterol lowering action of the test compound was evaluated from the cholesterol lowering rate calculated from the following expressions. [formula]
SMILES,IC50 [1] [µM],(VLDL + LDL) Cholesterol Lowering Rate [2] [%],Total Cholesterol Lowering Rate [2] [%]
"COC(=O)c1c(C(=O)c2ccc(C(F)(F)F)cc2)c(O)c2cc(OC)c(OC)c(OC)c2c1-c1ccc(OC)c(OC)c1 [Example 1, 1-(3,4-Dimethoxyphenyl)-4-hydroxy-2-(methoxycarbonyl)-3-[4-(trifluoromethyl)benzoyl]-6,7,8-trimethoxynaphthalene]",1.52,61,22
"COC(=O)c1c(C(=O)c2ccc(Cl)cc2)c(O)c2cc(OC)c(OC)c(OC)c2c1-c1ccc(OC)c(OC)c1 [Example 2, 3-(4-Chlorobenzoyl)-1-(3,4-dimethoxyphenyl)-4-hydroxy-2-(methoxycarbonyl)-6,7,8-trimethoxynaphthalene]",1.42,74,28
